Earlier results in the CATMoS acute toxicity set (Mansouri et al. 2021).
Values joined by “and” are separate entries in the source; they are usually repeats but may differ in a detail not shown here. Equal entries are not always repeated.

experiment: rat acute oral toxicity; settings: in vivo
Description: […]The data set underlying the modeling effort for this project was initially compiled by NICEATM and U.S. EPA’s CCTE. Briefly, LD50 data were collected from rat acute oral systemic toxicity tests, including limit tests, ranges/confidence intervals, and discrete LD50 values. The full data set included 21,200 LD50 entries for 15,688 substances. […] Data were reviewed to ensure that LD50 values with obvious errors in the extracted data such as unit conversion errors (e.g., comma and decimal separator misplacements) were either fixed or removed. After this review, 16,209 LD50 values remained. Many of the chemicals represented had multiple LD50 entries, requiring that a single representative value per Chemical Abstracts Service Registry Number (CASRN) identifier be defined to facilitate modeling efforts. Based on ATWG feedback and to define the representative LD50 as a protective value while accounting for the distribution across multiple LD50s, the median of the lowest quartile was computed using only discrete LD50 values (omitting limit test data and range and confidence interval data). A detailed summary of the data compilation is available online on the NICEATM webpage dedicated to the collaborative modeling project (NTP 2020).
[…][…] For categorical designations, limit test and range/confidence interval LD50 data were integrated wherever possible. As such, the number of chemicals with end point values/calls varies across the modeling end points (Table 3) based on whether chemicals had representative LD50 values and/or other data. If a chemical had both, the representative value was used to determine categorical calls rather than limit test data. Some data were useable only for certain end points and categories depending on the thresholds. For example, ranges that spanned multiple hazard categories were considered only for the binary (very toxic/nontoxic) end points and omitted from rendering a determination for hazard category assignment.
[…]The final data set comprising 11,992 chemicals was split into training and evaluation sets […], respectively. This process was performed semirandomly by ordering chemicals based on the five end points (categorical and continuous LD50 values) and partitioning every fourth record into the evaluation set accordingly. This approach was taken to ensure an equivalent distribution of the LD50 values and the different hazard categories between the training and the evaluation sets without supervised sampling of the chemicals based on structures (Figure 1A). The sources of the chemical structures were also kept equivalent between the two sets, with chemical structures obtained from DSSTox, being the highest quality, representing over 75% of each set (Figure 1B).

SMILES | LD50
CCOP(=O)(OCC)ON1C(=O)c2cccc3cccc(c23)C1=O | 70 mg/kg
c1cncc(C2=NCCC2)c1 | 1880 mg/kg
N#CC(N=Nc1ccc(C(F)(F)F)cc1)=NNc1ccc(C(F)(F)F)cc1 | 613 mg/kg
NC(=O)OCC(O)COc1ccc(Cl)cc1 (stereo not given) | 744 mg/kg
CC1=NN(c2ccccc2)C(=O)C1 | 1920 mg/kg
N#Cc1ccc(Cl)c([N+](=O)[O-])c1 | 2050 mg/kg
NCCCCC(CN)CCCN (stereo not given) | 760 mg/kg
C/C=C1\[C@H]2C=C(C)C[C@]1(N)c1ccc(=O)[nH]c1C2 | 15 mg/kg
COCCNC(=O)CSP(=S)(OC)OC | 420 mg/kg
CNC(=O)Oc1cc(C)ccc1C(C)C | 500 mg/kg
CN1CCC(CN2c3ccccc3Sc3ccccc32)C1 (stereo not given) | 260 mg/kg and 162 mg/kg
CCCCCC#CC(=O)OC | 1530 mg/kg
CO[C@H]1[C@@H](O)C[C@H](O[C@H]2[C@@H](O)C[C@H](O[C@H]3[C@@H](O)C[C@H](O[C@H]4CC[C@@]5(C)[C@H](CC[C@@H]6[C@@H]5C[C@@H](O)[C@]5(C)[C@@H](C7=CC(=O)OC7)CC[C@]65O)C4)O[C@@H]3C)O[C@@H]2C)O[C@@H]1C | 8.3 mg/kg
O=[N+]([O-])c1cc(Br)c2nc(C(F)(F)F)[nH]c2c1 | 14.5 mg/kg
CCC(CC)COC(=O)CCCCC(=O)OCC(CC)CC | 5620 mg/kg
CCN1C=CC(=C2C(=O)c3ccccc3C2=O)C=C1 | 330 mg/kg
COc1ccc2c(c1)C(N1CCN(C)CC1)=Cc1ccccc1O2 | 822 mg/kg
CCSP(=O)(OC)SCC | 158 mg/kg
COP(=O)(OC)C(OC(=O)CCl)C(Cl)(Cl)Cl (stereo not given) | 344 mg/kg
CCC(C)(O)CCc1ccccc1 (stereo not given) | 2950 mg/kg
Cc1ccc(O)c(-n2nc3ccccc3n2)c1 | 10000 mg/kg
CSCCC(O)C#N (stereo not given) | 48 mg/kg
CCCCSC(C)C1(CC)C(=O)N=C(O)NC1=O (stereo not given) | 582 mg/kg
O=C(O)CCC(=O)OC[C@@H](NC(=O)C(Cl)Cl)[C@H](O)c1ccc([N+](=O)[O-])cc1 | 8300 mg/kg
Cc1ccc(SP(=S)(CCl)OC(C)C)cc1 (stereo not given) | 204 mg/kg

SMILES | LD50
NCCOS(N)(=O)=O | 7460 mg/kg
Cc1cc(C)c(N)cc1C | 1250 mg/kg and 1580 mg/kg
ClC(Cl)C(Cl)(Cl)Cl | 920 mg/kg
C1CCNC1 | 300 mg/kg
OC(c1ccccc1)C1CCCCC1 (stereo not given) | 9300 mg/kg
O=c1[nH]c2ccccc2n1CCCN1CCN(C(c2ccccc2)c2ccccc2)CC1 | 1410 mg/kg
NC1=NCC(CN2CCN(c3ccccc3)CC2)O1 (stereo not given) | 575 mg/kg
CCCCOc1ccccc1NC(C)=O | 2900 mg/kg
C=CCOc1ccccc1C(N)=O | 780 mg/kg
CCC(CC)c1cccc(OC(=O)NC)c1 | 87 mg/kg
CC(C)c1ccc(C#N)cc1 | 3900 mg/kg
CCC(=O)OC1(c2ccccc2)CCN(C)C1C (stereo not given) | 253 mg/kg
COc1ccc(O)cc1 | 1600 mg/kg
COc1cccc2c1C(=O)c1c(O)c3c(c(O)c1C2=O)C[C@@](O)(C(C)=O)C[C@@H]3O[C@H]1C[C@H](N)[C@H](O)[C@H](C)O1 | 336 mg/kg and 290 mg/kg
CC1=CC(=O)c2c(O)cccc2C1=O | 65 mg/kg
FC(F)(F)c1nc2c(Br)c(Br)c(Br)cc2[nH]1 | 7.18 mg/kg
Cc1cccc(N(CCO)CCO)c1 | 3100 mg/kg
CN1CCCCC1CCN1c2ccccc2Sc2ccc(Br)cc21 (stereo not given) | 900 mg/kg
O=c1[nH]nc(-c2ccccc2)c2conc12 | 1000 mg/kg
O=C(CCl)c1ccc(Cl)cc1Cl | 300 mg/kg
Cc1cc2[nH]c(C(F)(F)F)nc2c([N+](=O)[O-])c1C | 67 mg/kg
CCOP(=S)(OCC)SCSC(=S)N(C)C | 150 mg/kg
FC(F)(F)c1nc2c(Cl)c(Br)c(Br)c(Cl)c2[nH]1 | 3.43 mg/kg
CCCCC1C(=O)NN(c2ccccc2)C1=O (stereo not given) | 1750 mg/kg
N#C[SeH] | 10 mg/kg

SMILES | LD50
Oc1ccc(-c2ccccc2)cc1CN1CCOCC1 | 25 mg/kg
CC(C)N(CCON=C1CCCCCC1=Cc1ccccc1)C(C)C | 537 mg/kg
CC1(C)CO1 | 3890 mg/kg
CC(NCCNC(C)c1ccccc1)c1ccccc1 (stereo not given) | 1290 mg/kg
COc1c(OP(=S)(OCC(C)C)OCC(C)C)cnn(C)c1=O | 135 mg/kg
CCCCC(CC)CCC(CC(C)C)OS(=O)(=O)O (stereo not given) | 1250 mg/kg
CCN1CC2CN(C)CC(C1)C2OC(=O)c1ccc(Cl)cc1 (stereo not given) | 200 mg/kg
COc1ccc2cc([C@H](C)C(=O)OCCN3CCN(Cc4ccc(N)cc4)CC3)ccc2c1 | 1600 mg/kg
O=C1CCC(=O)N1c1cc(Cl)cc(Cl)c1 | 890 mg/kg
O=C1c2ccccc2C(=O)N1CCc1ccccn1 | 860 mg/kg
Cc1ccc(C2=CCN(CC=Cc3ccc4c(c3)CCC(=O)N4)CC2)cc1 | 500 mg/kg
COc1ccc(CCl)cc1OC | 4700 mg/kg
CC(=O)Oc1cccc(Oc2ccc(C(F)(F)F)cc2Cl)c1 | 2500 mg/kg
ClCc1c(Cl)cc(Cl)cc1Cl | 3080 mg/kg
C=C1/C(=C\C=C2/CCC[C@]3(C)[C@@H]([C@H](C)CCCC(C)(C)O)CC[C@@H]23)C[C@@H](O)C[C@@H]1O | 0.62 mg/kg
C[N+]1(CCC(C2=CCCCC2)c2ccccc2)CCCCC1 (stereo not given) | 1700 mg/kg
Nc1c(Br)cc([N+](=O)[O-])cc1[N+](=O)[O-] | 4100 mg/kg
CC(C)(C)C(O)C(=Cc1ccc(Cl)cc1Cl)n1cncn1 (stereo not given) | 474 mg/kg
CC(C)OCC1CO1 (stereo not given) | 4200 mg/kg
CCC(C)S (stereo not given) | 5180 mg/kg
CCSC(=S)N(CC)CC | 712 mg/kg
Cc1ccc(/N=C/NSN(Cc2ccccc2)Cc2ccccc2)c(C)c1 | 1050 mg/kg
C=C(C)C(=O)OC[Si]12OCCN(CCO1)CCO2 | 7950 mg/kg
COc1ccc(C(O)(c2cncnc2)C2CC2)cc1 (stereo not given) | 4500 mg/kg
O=[N+]([O-])c1ccc(Cl)c2nc(C(F)(F)F)[nH]c12 | 11.1 mg/kg

SMILES | LD50
CCN(O)CC | 2190 mg/kg
CCCN(CCC)S(=O)(=O)CCNC(=O)N(CCCl)N=O | 250 mg/kg
O=c1c2cccnc2oc2c(Cl)cc(-c3nn[nH]n3)cc12 | 16000 mg/kg
Cc1ccc(C(C)C)cc1O | 810 mg/kg
O=NN1CN(N=O)CN(N=O)C1 | 160 mg/kg
COP(=O)(OC)Oc1nc(Cl)c(Cl)cc1Cl | 869 mg/kg
CCCCNP(=S)(OCC)Sc1ccccc1 (stereo not given) | 300 mg/kg
CC(C)N=C1SC(=NOC(=O)N(C)SN(C)C(=O)ON=C2SC(=NC(C)C)SC2(C)C)C(C)(C)S1 | 113 mg/kg
CC(C)(C)C1CCC(O)CC1 (stereo not given) | 4200 mg/kg
Nc1ccc2cc(S(=O)(=O)O)c(/N=N/c3ccc(-c4ccc(/N=N/c5c(S(=O)(=O)O)cc6cc(S(=O)(=O)O)cc(N)c6c5O)cc4)cc3)c(O)c2c1 | 6450 mg/kg
OC1CC2CC1C1CC3OC3C21 (stereo not given) | 3130 mg/kg
Cc1ccccc1NCCO | 2200 mg/kg
CCOC(=O)C1(CCCCCCOc2ccc(Cl)cc2)CO1 (stereo not given) | 250 mg/kg
O=S(=O)(Oc1ccc(Cl)cc1Cl)c1ccccc1 | 1000 mg/kg
CNC(=O)ON=CC(C)(C)OC | 15 mg/kg
CCS(=O)(=O)CCOP(=S)(OC)OC | 500 mg/kg
S=C1NCCS1 | 300 mg/kg
C=C(C)C1CC=C(C=NO)CC1 (stereo not given) | 2500 mg/kg
CNC(=C[N+](=O)[O-])NCCSCc1csc(CN(C)C)n1 | 1650 mg/kg
O=C(C=CC(=O)OCCCl)OCCCl | 71 mg/kg
C=CCN1CC[C@]23c4c5ccc(O)c4O[C@H]2[C@@H](O)C=C[C@H]3[C@H]1C5 | 1150 mg/kg
CN(C)C(=O)c1cccc(-c2ccccc2)c1O | 1900 mg/kg
CNC(=N)NC(=O)Nc1c(C)cccc1C | 187 mg/kg and 184 mg/kg
CN(C)C(=O)OC1=CC(=O)CC(C)(C)C1 | 120 mg/kg
C=COCCSCCCC | 2830 mg/kg

SMILES | LD50
C=CCN(CC=C)C(=O)CCl | 700 mg/kg
COc1ccccc1S | 1740 mg/kg
C=CCOCC(CC)(CO)COCC=C | 6500 mg/kg
C=CCSC1=NCCS1 | 110 mg/kg
Cc1ccnc(N)c1 | 200 mg/kg
COC(=O)C(=O)C(O)=C(O)OC | 8000 mg/kg
Cc1cc(C)c(C)c(C)c1 | 5160 mg/kg
CCCCC(CC)CNC(=O)CC(C)OC(=O)CCC(=O)O (stereo not given) | 12100 mg/kg
CNC(=O)ON=C1CCCC1(C)C#N (stereo not given) | 18 mg/kg
CN(Sc1ccc(Cl)c(Cl)c1)C(=O)Oc1cccc2c1OC(C)(C)C2 | 25 mg/kg
Nc1ccccc1-c1ccccc1 | 2340 mg/kg
O=P(CCCl)(OCCCl)OCCCl | 880 mg/kg
CN(N=O)c1ccccc1 | 225 mg/kg
Cc1c[nH]c2ccccc12 | 3450 mg/kg
Cc1c(Cl)c([N+](=O)[O-])c2nc(C(F)(F)F)[nH]c2c1[N+](=O)[O-] | 105 mg/kg
FC(F)(F)c1nc2c(Cl)c(Cl)c(Br)cc2[nH]1 | 2.78 mg/kg
CSc1nc(-c2ccc(Cl)cc2)n(-c2ccc(Cl)cc2)n1 | 770 mg/kg
CC(C)(C)c1cc([N+](=O)[O-])cc(C(C)(C)C)c1O | 250 mg/kg
CN1[C@@H]2CC[C@H]1C[C@@H](OC(c1ccccc1)c1ccccc1)C2 | 940 mg/kg
O=C(O)CC1(CO)CCCCC1 | 20 mg/kg
C1CN(CCOCCN2CCOCC2)CCO1 | 2020 mg/kg
COCCOc1cnc(NS(=O)(=O)c2ccccc2)nc1 | 3100 mg/kg
CC(c1ccc(C(F)(F)F)nc1)S(C)(=O)=NC#N (stereo not given) | 1000 mg/kg
NCCCCCCCCCCC(=O)O | 14700 mg/kg
CCCCCCCCCCCC(=O)O | 12000 mg/kg
